Here are results for one molecule from PMC10166615 (Bioorganic & Medicinal Chemistry, 2023).

The target of this assay is SARS-CoV-2 3CLpro (Severe acute respiratory syndrome coronavirus 2, UniProt P0DTD1). Description: biochemical.
Where [1] appears, read: read-out: SARS-CoV-2 3CLpro Inhibition (%).

The IC50 is the midpoint of a concentration-inhibition curve. Higher therefore signals weaker potency. As a reminder, the inhibition is how much of the control response was suppressed. `CC(C)(C)[C@H](NC(=O)C(F)(F)F)C(=O)N1C[C@@H]2CCC[C@@H]2[C@H]1C(=O)N[C@H](C#N)C[C@@H]1CCNC1=O` [1a, (1S,3aR,6aS)-N-((S)-1-cyano-2-((S)-2-oxopyrrolidin-3-yl)ethyl)-2-((S)-3,3-dimethyl-2-(2,2,2-trifluoroacetamido)butanoyl)octahydrocyclopenta[c]pyrrole-1-carboxamide]: inhibition was half-maximal at 18.1 ± 2.35 nM (IC50). Moreover, under setting [1], the inhibition at 0.02 µM stood at 24%, the inhibition at 0.1 µM is 82.5%, the inhibition at 1 µM came to 88.9% and the inhibition at 10 µM worked out at 88.3%.
